# Test results as given in PubChem BioAssay (NCI).
#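 96-well plates; 48 h exposure; 5 concentrations. Endpoints by linear interpolation between flanking doses. Not reached: highest tested concentration assigned. GI50 = concentration required for 50% inhibition of growth. TGI is the concentration that stops growth completely.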
# Key:
# Assay in all cases: NCI tumour cell line growth inhibition, 48 h
# [1] = system: UACC-62 melanoma
# [2] = system: COLO 205 colon
# [3] = system: SK-OV-3 ovarian
# [4] = system: SK-MEL-5 melanoma
# [5] = system: HT29 colon
# [6] = system: MCF7 breast
# [7] = system: HOP-92 NSCLC
# [8] = system: HCT-15 colon
# [9] = system: A549 NSCLC
# [10] = system: HOP-62 NSCLC
# [11] = system: A498 renal
# [12] = system: LOX IMVI melanoma
# [13] = system: U251 CNS
# [14] = system: 786-0 renal
# [15] = system: MDA-MB-435
# [16] = system: SF-539 CNS
# [17] = system: KM12 colon
# [18] = system: UO-31 renal
# [19] = system: NCI-H23 lung
# [20] = system: SK-MEL-28 melanoma
# [21] = system: ACHN renal
# [22] = system: SNB-75 CNS
# [23] = system: NCI/ADR-RES ovarian
# [24] = system: OVCAR-5 ovarian
# [25] = system: EKVX NSCLC
# [26] = system: SF-295 CNS
# [27] = system: SK-MEL-2 melanoma
# [28] = system: PC-3 prostate
# [29] = system: DU-145 prostate
# [30] = system: UACC-257 melanoma
# [31] = system: SW-620 colon
# [32] = system: M14 melanoma
# [33] = system: HCT-116 colon
# [34] = system: SN12C renal
# [35] = system: MDA-MB-231 breast
# [36] = system: MDA-N
# [37] = system: OVCAR-8 ovarian
# [38] = system: OVCAR-4 ovarian
# [39] = system: MALME-3M melanoma
# [40] = system: HCC-2998 colon
# [41] = system: T-47D breast
# [42] = system: IGROV1 ovarian
# [43] = system: CCRF-CEM leukemia
# [44] = system: NCI-H226 lung
# [45] = system: K-562 leukemia
# [46] = system: SF-268 CNS
# [47] = system: SNB-19 CNS
# [48] = system: MOLT-4 leukemia
# [49] = system: CAKI-1 renal
# [50] = system: NCI-H522 lung
# [51] = system: BT-549 breast
# [52] = system: RXF 393 renal
# [53] = system: HL-60(TB) leukemia
# [54] = system: NCI-H460 lung
# [55] = system: HS 578T breast
# [56] = system: TK-10 renal
# [57] = system: SR leukemia
# [58] = system: OVCAR-3 ovarian
# [59] = system: RPMI-8226 leukemia
smiles,measurement,setting,value
Cc1csc2nc(-c3ccc(Cl)c([N+](=O)[O-])c3)c(/C=N/N=C(N)N)n12,TGI,[1],3.3 µM
same,TGI,[2],2.37 µM
same,TGI,[3],3.24 µM
same,TGI,[4],2.94 µM
same,TGI,[5],3.26 µM
same,TGI,[6],3.67 µM
same,TGI,[7],1.38 µM
same,TGI,[8],3.02 µM
same,TGI,[9],3.54 µM
same,TGI,[10],3.41 µM
same,TGI,[11],2.85 µM
same,TGI,[12],2.97 µM
same,TGI,[13],2.97 µM
same,TGI,[14],2.93 µM
same,TGI,[15],3.13 µM
same,TGI,[16],2.98 µM
same,TGI,[17],4.75 µM
same,TGI,[18],2.33 µM
same,TGI,[19],3.29 µM
same,TGI,[20],3.45 µM
same,TGI,[21],2.94 µM
same,TGI,[22],3.37 µM
same,TGI,[23],5.95 µM
same,TGI,[24],2.55 µM
same,TGI,[25],2.93 µM
same,TGI,[26],2.78 µM
same,TGI,[27],2.48 µM
same,TGI,[28],2810 nM
same,TGI,[29],4.86 µM
same,TGI,[30],1.82 µM
same,TGI,[31],1.35 µM
same,TGI,[32],3.38 µM
same,TGI,[33],3.97 µM
same,TGI,[34],3.68 µM
same,TGI,[35],3.68 µM
same,TGI,[36],2690 nM
same,TGI,[37],1.57 µM
same,TGI,[38],3.4 µM
same,TGI,[39],4.38 µM
FC(F)(F)c1ccc2nc(Sc3ccccn3)cnc2c1,TGI,[1],88.3 µM
same,TGI,[2],> 100 µM
same,TGI,[3],> 100 µM
same,TGI,[40],38.3 µM
same,TGI,[41],> 100 µM
same,TGI,[4],66.2 µM
same,TGI,[5],> 100 µM
same,TGI,[6],> 100 µM
same,TGI,[42],> 100 µM
same,TGI,[43],> 100 µM
same,TGI,[7],> 100 µM
same,TGI,[44],60.2 µM
same,TGI,[8],> 100 µM
same,TGI,[45],> 100 µM
same,TGI,[9],> 100 µM
same,TGI,[46],> 100 µM
same,TGI,[10],> 100 µM
same,TGI,[11],54.1 µM
same,TGI,[12],> 100 µM
same,TGI,[13],42.3 µM
same,TGI,[14],62.1 µM
same,TGI,[15],> 100 µM
same,TGI,[16],35.9 µM
same,TGI,[17],> 100 µM
same,TGI,[18],> 100 µM
same,TGI,[47],86.8 µM
same,TGI,[19],78.8 µM
same,TGI,[20],> 100 µM
same,TGI,[48],> 100 µM
same,TGI,[21],52.9 µM
same,TGI,[22],96.1 µM
same,TGI,[23],> 100 µM
same,TGI,[49],> 100 µM
same,TGI,[24],> 100 µM
same,TGI,[25],> 100 µM
same,TGI,[50],43.7 µM
same,TGI,[26],> 100 µM
same,TGI,[27],31.1 µM
same,TGI,[29],> 100 µM
same,TGI,[30],> 100 µM
same,TGI,[51],68.1 µM
same,TGI,[31],> 100 µM
same,TGI,[52],55.5 µM
same,TGI,[32],> 100 µM
same,TGI,[53],31.7 µM
same,TGI,[33],> 100 µM
same,TGI,[34],> 100 µM
same,TGI,[35],> 100 µM
same,TGI,[36],> 100000 nM
same,TGI,[54],> 100 µM
same,TGI,[37],> 100 µM
same,TGI,[38],> 100 µM
same,TGI,[55],> 100 µM
same,TGI,[56],> 100 µM
same,TGI,[39],> 100 µM
O=C1NC(=O)C(c2cccc(Cl)c2)=C1Nc1ccc(O)c(Cl)c1,GI50,[1],7.63 µM
same,TGI,[1],> 25 µM
same,GI50,[2],> 20.1 µM
same,TGI,[2],> 25 µM
same,GI50,[3],6.62 µM
same,TGI,[3],16.2 µM
same,GI50,[40],24.6 µM
same,TGI,[40],> 25 µM
same,GI50,[41],7.98 µM
same,TGI,[41],> 23.1 µM
same,GI50,[4],5.46 µM
same,TGI,[4],18.6 µM
same,GI50,[5],10 µM
same,TGI,[5],> 25 µM
same,GI50,[6],10.4 µM
same,TGI,[6],> 25 µM
same,GI50,[42],12.9 µM
same,TGI,[42],> 25 µM
same,GI50,[43],11 µM
same,TGI,[43],> 25 µM
same,GI50,[57],11.3 µM
same,TGI,[57],> 25 µM
same,GI50,[7],5.76 µM
same,TGI,[7],> 25 µM
same,GI50,[44],12 µM
same,TGI,[44],> 25 µM
same,GI50,[8],8.66 µM
same,TGI,[8],> 25 µM
same,GI50,[58],7.86 µM
same,TGI,[58],> 21.9 µM
same,GI50,[45],11.7 µM
same,TGI,[45],> 25 µM
same,GI50,[9],9.88 µM
same,TGI,[9],> 25 µM
same,GI50,[46],11.2 µM
same,TGI,[46],> 25 µM
same,GI50,[10],9.57 µM
same,TGI,[10],24.3 µM
same,GI50,[11],11.1 µM
same,TGI,[11],> 25 µM
same,GI50,[12],8.85 µM
same,TGI,[12],> 25 µM
same,GI50,[13],12.5 µM
same,TGI,[13],> 25 µM
same,GI50,[14],12.1 µM
same,TGI,[14],> 25 µM
same,GI50,[15],3.28 µM
same,TGI,[15],> 25 µM
same,GI50,[16],7.71 µM
same,TGI,[16],> 21.9 µM
same,GI50,[17],10.5 µM
same,TGI,[17],> 25 µM
same,GI50,[18],7.93 µM
same,TGI,[18],> 25 µM
same,GI50,[47],15.9 µM
same,TGI,[47],> 25 µM
same,GI50,[19],12.9 µM
same,TGI,[19],> 25 µM
same,GI50,[20],13.7 µM
same,TGI,[20],> 25 µM
same,GI50,[48],15 µM
same,TGI,[48],> 25 µM
same,GI50,[21],11.4 µM
same,TGI,[21],> 25 µM
same,GI50,[22],6.96 µM
same,TGI,[22],> 20.4 µM
same,GI50,[23],10.4 µM
same,TGI,[23],> 25 µM
same,GI50,[49],7.72 µM
same,TGI,[49],> 25 µM
same,GI50,[24],22.4 µM
same,TGI,[24],> 25 µM
same,GI50,[25],10.6 µM
same,TGI,[25],> 25 µM
same,GI50,[50],6.98 µM
same,TGI,[50],> 21 µM
same,GI50,[26],11.6 µM
same,TGI,[26],> 25 µM
same,GI50,[27],7.91 µM
same,TGI,[27],22.5 µM
same,GI50,[28],12.2 µM
same,TGI,[28],> 25000 nM
same,GI50,[29],14.1 µM
same,TGI,[29],> 25 µM
same,GI50,[30],> 25 µM
same,TGI,[30],> 25 µM
same,GI50,[51],11.3 µM
same,TGI,[51],> 25 µM
same,GI50,[31],8.73 µM
same,TGI,[31],> 25 µM
same,GI50,[52],6.4 µM
same,TGI,[52],24.8 µM
same,GI50,[32],12.1 µM
same,TGI,[32],> 25 µM
same,GI50,[53],8.75 µM
same,TGI,[53],> 25 µM
same,GI50,[33],9.6 µM
same,TGI,[33],> 25 µM
same,GI50,[34],9.42 µM
same,TGI,[34],> 25 µM
same,GI50,[59],14 µM
same,TGI,[59],> 25 µM
same,GI50,[35],16.1 µM
same,TGI,[35],> 25 µM
same,GI50,[54],8.91 µM
same,TGI,[54],> 25 µM
same,GI50,[37],14 µM
same,TGI,[37],> 25 µM
same,GI50,[38],8.98 µM
same,TGI,[38],> 25 µM
same,GI50,[55],5.11 µM
same,TGI,[55],19.3 µM
same,GI50,[56],8.66 µM
same,TGI,[56],> 25 µM
same,GI50,[39],15.9 µM
same,TGI,[39],> 25 µM
